Experimental data as given in paper PMC3913857, “Regorafenib in Japanese patients with solid tumors: phase I study of safety, efficacy, and pharmacokinetics” (Investigational New Drugs, 2013).
Where two headings read alike, the source gives them in different places.

Key:
[1] = parameters: method as in PMID 22421192, PMID 22568966; conditions: European phase I and II studies; cited from earlier work
cytochrome p450 3A4 = tested on: cytochrome p450 3A4; parameters: method as in ref 11 = [11]; 11. Bayer HealthCare AG, data on file; conditions: in vitro; cited from earlier work
[2] = parameters: method as in ref 7 = [7]; 7. Eisen T, Joenssu H, Nathan P Harper P, Wojtukiewicz M, Nicholson S, Bahl A, Tomczak P, Wagner A, Quinn D (2011) Phase II trial of the oral multi kinase inhibitor regorafenib (BAY 73-4506) as first-; conditions: European phase II study, advanced renal cell carcinoma, n = 49, cited from earlier work
[3] = parameters: method as in PMID 22421192; conditions: European phase I study, 160 mg cohort only, n = 12, cited from earlier work
[4] = Safety: adverse events (NCI CTCAE v3.0) and laboratory toxicities, Japan phase I study; parameters: species or system Japanese patients; conditions: in vivo
Method: (§1) All patients who received at least one dose of regorafenib were eligible for safety analyses and were included in the efficacy analyses if they also had post-baseline efficacy data. For the safety analysis, physical examination, vital signs, use of concomitant medications, and laboratory test data were reported, and patients were routinely monitored for adverse events, which were recorded with severity and relationship to study medication according to the National Cancer Institute Common Terminology Criteria for Adverse Events version 3.0. Tumor response was assessed every 8 weeks for the first 6 cycles and every 12 weeks after Cycle 6 by Response Evaluation Criteria in Solid Tumors version 1.0, using the same imaging techniques and methods as at baseline. The response rate was defined as the proportion of patients whose best response was a confirmed partial or complete response.
Unacceptable toxicity was defined as any of the following events occurring during Cycle 1 and considered to be related to study drug: grade 4 neutropenia (for ≥7 days); febrile neutropenia with grade 4 neutropenia and fever; grade 4 thrombocytopenia; grade 3 or 4 nonhematologic toxicities (excluding events considered to be tolerable by the investigator). If two of the first three or three of the first six patients treated with regorafenib experienced unacceptable toxicities during Cycle 1, the safety data were reviewed by the Data Monitoring Committee, which considered whether protocol amendments were needed to address any safety concerns before subsequent patients were treated.

[5] = tested on: UDP-glucuronosyltransferase 1A9; parameters: method as in ref 11 = [11]; 11. Bayer HealthCare AG, data on file; conditions: in vitro, glucuronidation; cited from earlier work
clinical = assay: clinical; parameters: species or system Japanese patients; conditions: in vivo
Method: Patients who provided at least one evaluable pharmacokinetic sample were eligible for pharmacokinetic analyses.
Plasma concentrations of regorafenib and its metabolites were determined by fully validated liquid chromatography–tandem mass spectrometry after protein precipitation with acetonitrile/ammonium acetate buffer containing the internal standards [^2H3 ^15N] BAY 73-4506 (for regorafenib), [^2H3 ^15N] […] BAY 81-8752 (for the M5 metabolite).

[6] = tested on: treatment-refractory advanced solid tumors; assay: Tumor response (RECIST version 1.0), Japan phase I study; type: in vivo, Japanese patients
Method: as §1

[7] = any time after start of study treatment

CNC(=O)c1cc(Oc2ccc(NC(=O)Nc3ccc(Cl)c(C(F)(F)F)c3)c(F)c2)ccn1 [Regorafenib]
Frequency of hand–foot skin reaction [1]: 67–71%
Metabolizing enzyme (cytochrome p450 3A4): metabolized by cytochrome p450 3A4
Incidence of biochemical toxicities: ALT, all grades [2, 7]: 39%
Incidence of biochemical toxicities: ALT, grade 3/4 [2, 7]: 2%
Incidence of biochemical toxicities: AST, all grades [2, 7]: 41%
Incidence of biochemical toxicities: AST, grade 3/4 [2, 7]: 2%
Adverse events: Alopecia, all grades ([2]; untreated): 45%
Adverse events: Alopecia, grade 3/4 ([2]; untreated): 0%
Adverse events: Anorexia, all grades ([2]; untreated): 29%
Adverse events: Anorexia, grade 3/4 ([2]; untreated): 6%
Adverse events: Diarrhea, all grades ([2]; untreated): 45%
Adverse events: Diarrhea, grade 3/4 ([2]; untreated): 10%
Adverse events: Fatigue, all grades ([2]; untreated): 53%
Adverse events: Fatigue, grade 3/4 ([2]; untreated): 8%
Adverse events: Hand–foot skin reaction, all grades ([2]; untreated): 71%
Adverse events: Hand–foot skin reaction, grade 3/4 ([2]; untreated): 33%
Adverse events: Hypertension, all grades ([2]; untreated): 49%
Adverse events: Hypertension, grade 3/4 ([2]; untreated): 6%
Adverse events: Rash, all grades ([2]; untreated): 39%
Adverse events: Rash, grade 3/4 ([2]; untreated): 6%
Adverse events: Voice changes/hoarseness, all grades ([2]; untreated): 35%
Adverse events: Voice changes/hoarseness, grade 3/4 ([2]; untreated): 0%
Incidence of biochemical toxicities: ALT, all grades [3, 7]: 75%
Incidence of biochemical toxicities: ALT, grade 3/4 [3, 7]: 25%
Incidence of biochemical toxicities: AST, all grades [3, 7]: 75%
Incidence of biochemical toxicities: AST, grade 3/4 [3, 7]: 25%
Adverse events: Alopecia, all grades [3]: 33%
Adverse events: Alopecia, grade 3/4 [3]: 0%
Adverse events: Anorexia, all grades [3]: 50%
Adverse events: Anorexia, grade 3/4 [3]: 8%
Adverse events: Diarrhea, all grades [3]: 50%
Adverse events: Diarrhea, grade 3/4 [3]: 17%
Adverse events: Fatigue, all grades [3]: 17%
Adverse events: Fatigue, grade 3/4 [3]: 0%
Adverse events: Hand–foot skin reaction, all grades [3]: 67%
Adverse events: Hand–foot skin reaction, grade 3/4 [3]: 25%
Adverse events: Hypertension, all grades [3]: 50%
Adverse events: Hypertension, grade 3/4 [3]: 17%
Adverse events: Rash, all grades [3]: 50%
Adverse events: Rash, grade 3/4 [3]: 8%
Adverse events: Voice changes/hoarseness, all grades [3]: 42%
Adverse events: Voice changes/hoarseness, grade 3/4 [3]: 0%
Biochemical abnormality: alkaline phosphatase (ALP) elevation ([4]; human): 93%
Biochemical abnormality: hypoalbuminemia ([4]; human): 93%
Biochemical abnormality: hypophosphatemia ([4]; human): 80%
Biochemical abnormality: proteinuria ([4]; human): 80%
Biochemical toxicity: ALP elevation, any grade ([4]; human): 14 (93) n (%)
Biochemical toxicity: ALP elevation, grade 3 or 4 ([4]; human): 2 (13) n (%)
Biochemical toxicity: ALT elevation, any grade ([4]; human): 12 (80) n (%)
Biochemical toxicity: ALT elevation, grade 3 or 4 ([4]; human): 3 (20) n (%)
Biochemical toxicity: AST elevation, any grade ([4]; human): 13 (87) n (%)
Biochemical toxicity: AST elevation, grade 3 or 4 ([4]; human): 3 (20) n (%)
Biochemical toxicity: Hypoalbuminemia, any grade ([4]; human): 14 (93) n (%)
Biochemical toxicity: Hypoalbuminemia, grade 3 or 4 ([4]; human): 0 n (%)
Biochemical toxicity: Hypocalcemia, any grade ([4]; human): 9 (60) n (%)
Biochemical toxicity: Hypocalcemia, grade 3 or 4 ([4]; human): 0 n (%)
Biochemical toxicity: Hypophosphatemia, any grade ([4]; human): 12 (80) n (%)
Biochemical toxicity: Hypophosphatemia, grade 3 or 4 ([4]; human): 4 (27) n (%)
Biochemical toxicity: Proteinuria, grade 3 or 4 ([4]; human): 1 (7) n (%)
Incidence of biochemical toxicities: ALT, grade 3/4 ([4]; human): 20%
Incidence of biochemical toxicities: AST, all grades ([4]; human): 87%
Incidence of biochemical toxicities: AST, grade 3/4 ([4]; human): 20%
Patients with at least one drug-related treatment-emergent adverse event of any grade ([4]; human): 15 patients
Treatment discontinuation for adverse event: anemia ([4]; human): 1 n
Treatment discontinuation for adverse event: liver enzyme elevation ([4]; human): 1 n
Grade of drug-related adverse event resulting in treatment reduction or interruption: ALT elevation ([4]; human, 1 cycle): 3
Grade of drug-related adverse event resulting in treatment reduction or interruption: AST elevation ([4]; human, 1 cycle): 3
Grade of drug-related adverse event resulting in treatment reduction or interruption: Hypertension ([4]; human, 1 cycle): 2
Grade of drug-related adverse event resulting in treatment reduction or interruption: Leukopenia ([4]; human, 1 cycle): 2
Grade of drug-related adverse event resulting in treatment reduction or interruption: Neutropenia ([4]; human, 1 cycle): 3
Grade of drug-related adverse event resulting in treatment reduction or interruption: Thrombocytopenia ([4]; human, 1 cycle): 2
Grade of drug-related adverse event resulting in treatment reduction or interruption: ALT elevation ([4]; human, 2 cycle): 4
Grade of drug-related adverse event resulting in treatment reduction or interruption: Hand–foot skin reaction ([4]; human, 2 cycle): 3
Grade of drug-related adverse event resulting in treatment reduction or interruption: Dental pulpitis ([4]; human, 3 cycle): 2
Grade of drug-related adverse event resulting in treatment reduction or interruption: Diarrhea ([4]; human, 3 cycle): 3
Grade of drug-related adverse event resulting in treatment reduction or interruption: Hand–foot skin reaction ([4]; human, 3 cycle): 1
Grade of drug-related adverse event resulting in treatment reduction or interruption: Hand–foot skin reaction (event cell empty, from line above) ([4]; human, 3 cycle): 1
Grade of drug-related adverse event resulting in treatment reduction or interruption: Hand–foot skin reaction ([4]; human, 7 cycle): 3
Grade of drug-related adverse event resulting in treatment reduction or interruption: Hand–foot skin reaction (event cell empty, from line above) ([4]; human, 9 cycle): 1
Grade of drug-related adverse event resulting in treatment reduction or interruption: Proteinuria ([4]; human, 9 cycle): 3
Grade of drug-related adverse event resulting in treatment reduction or interruption: Proteinuria ([4]; human, 10 cycle): 2
Grade of drug-related adverse event resulting in treatment reduction or interruption: Back pain ([4]; human, 11 cycle): 3
Grade of drug-related adverse event resulting in treatment reduction or interruption: Gingivitis ([4]; human, 18 cycle): 2
Changes in vital signs or electrocardiogram findings [4]: No clear changes
Cycle delay (start of next cycle delayed longer than 7 days) because of adverse events [4]: four
Dose reduction because of adverse events [4]: six
Drug-related adverse events leading to dose interruption or dose reduction [4]: eight
Interruption of regorafenib during daily treatment because of adverse events [4]: seven
Serious adverse events [4]: six
Serious adverse events deemed treatment-related [4]: three
Treatment-related deaths [4]: No treatment-related deaths
Metabolizing enzyme [5]: UDP-glucuronosyltransferase 1A9 glucuronidation
AUC (clinical; human, po, 160 mg): 34600 ng·h/mL
AUC(0-t) (clinical; human, po, 160 mg): 16400 ng·h/mL
Cmax (clinical; human, po, 160 mg): 1370 ng/mL
t 1/2 (terminal half life) (clinical; human, po, 160 mg): 27.4 (29.9) h
t max (clinical; human, po, 160 mg): 4 h
half-life (clinical; human, po, 160 mg, t 1/2 (terminal half life)): ~27 h
AUC(0-t) (clinical; human, Cycle 1 day 21, regorafenib 160 mg once daily for 21 days, N = 12, geometric mean (% coefficient of variance), read-out: AUC0–24): 33000 ng·h/mL
Cmax (clinical; human, Cycle 1 day 21, regorafenib 160 mg once daily for 21 days, N = 12, geometric mean (% coefficient of variance), read-out: C max): 2520 ng/mL
half-life (clinical; human, Cycle 1 day 21, regorafenib 160 mg once daily for 21 days, N = 12, geometric mean (% coefficient of variance), read-out: t 1/2 (terminal half life) (converted)): 30.4 h
t max (clinical; human, Cycle 1 day 21, regorafenib 160 mg once daily for 21 days, N = 12, median (range), read-out: t max): 3.6 h
Change in t max and t 1/2 between single dosing and 21-day multiple dosing (clinical): no significant change
Complete response ([6]; 15 patients): no patient
Overall response rate ([6]; 15 patients, 95 % confidence interval 0.2–31.9 %): 7%
Median time to progression ([6]; 95 % confidence interval 1.9–12.4 months): 3.7 months
Duration of response (partial response) ([6]; one patient, pancreatic neuroendocrine tumor): 10.5 months
